Assay results as given in patent US7189720B2 (H. Lundbeck A/S, priority 1999, dated 2007).
Where a name gives a salt, the structure may show the parent alone. Read-outs that look alike come from different tables or passages of the source.

What was measured:
[1] = target: T1, human Y5 receptor (Homo sapiens, UniProt Q15761); assay: Radioligand binding to membranes, cloned human Y5 receptor; conditions: read-out: Ki, nM hNPY-5
T1 construct: expressed in transfected cells; host or cells: mouse fibroblast LM(tk-) cells, e.g. L-hY5-7 (ATCC CRL-11995)
T1 sequence (Q15761 1-445): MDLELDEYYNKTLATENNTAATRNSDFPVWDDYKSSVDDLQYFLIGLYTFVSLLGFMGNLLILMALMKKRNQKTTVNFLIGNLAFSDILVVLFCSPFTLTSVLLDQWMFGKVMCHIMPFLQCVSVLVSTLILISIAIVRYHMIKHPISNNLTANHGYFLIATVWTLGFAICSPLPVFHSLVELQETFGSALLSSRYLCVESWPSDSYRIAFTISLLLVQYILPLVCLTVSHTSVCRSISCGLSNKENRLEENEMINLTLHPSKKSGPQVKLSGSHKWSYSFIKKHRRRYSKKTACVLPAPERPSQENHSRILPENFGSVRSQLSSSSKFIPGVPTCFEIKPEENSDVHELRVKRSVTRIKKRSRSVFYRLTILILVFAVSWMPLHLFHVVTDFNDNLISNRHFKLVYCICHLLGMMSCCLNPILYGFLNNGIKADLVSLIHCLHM
Method: (§1) Binding of the compounds of the present invention to human Y1, Y2, Y4, and Y5 receptors was evaluated using stably transfected 293 or LM(tk-) cells as described above.
(§2) Membranes were harvested from COS-7 cells 48 hours after transient transfection. Adherent cells were washed twice in ice-cold phosphate buffered saline (138 mM NaCl, 8.1 mM Na2HPO4, 2.5 mM KCl, 1.2 mM KH2PO4, 0.9 mM CaCl2, 0.5 mM MgCl2, pH 7.4) and lysed by sonication in ice-cold sonication buffer (20 mM Tris-HCl, 5 mM EDTA, pH 7.7). Large particles and debris were cleared by low speed centrifugation (200×g, 5 min, 4° C.). Membranes were collected from the supernatant fraction by centrifugation (32,000×g, 18 min, 4° C.), washed with ice-cold hypotonic buffer, and collected again by centrifugation (32,000×g, 18 min, 4° C.). The final membrane pellet was resuspended by sonication into a small volume of ice-cold binding buffer (˜1 ml for every 5 plates: 10 mM NaCl, 20 mM HEPES, 0.22 mM KH2PO4, 1.26 mM CaCl2, 0.81 mM MgSO4, pH 7.4). Protein concentration was measured by the Bradford method (Bradford, 1976) using Bio-Rad Reagent, with bovine serum albumin as a standard. Membranes were held on ice for up to one hour and used fresh, or flash-frozen and stored in liquid nitrogen.
(§3) Membranes were prepared similarly from 293, LM(tk-), and NIH-3T3 cells.
(§4) Membrane suspensions were diluted in binding buffer supplemented with 0.1% bovine serum albumin to yield an optimal membrane protein concentration so that ^125I-PYY (or alternative radioligand such as ^125I-NPY, ^125I-NYY3-36, or ^125I-[Leu^31Pro^34]PYY) bound by membranes in the assay was less than 10% of ^125I-PYY (or alternative radioligand) delivered to the sample (100,000 dpm/sample=0.08 nM for competition binding assays). ^125I-PYY (or alternative radioligand) and peptide competitors were also diluted to desired concentrations in supplemented binding buffer. Individual samples were then prepared in 96-well polypropylene microtiter plates by mixing ^125I-PYY (25 μL) (or alternative radioligand), competing peptides or supplemented binding buffer (25 μL), and finally, membrane suspensions (200 μL). Samples were incubated in a 30° C. water bath with constant shaking for 120 min. Incubations were terminated by filtration over Whatman GF/C filters (pre-coated with 1% polyethyleneimine and air-dried before use), followed by washing with 5 mL of ice-cold binding buffer. Filter-trapped membranes were impregnated with MeltiLex solid scintillant (Wallac, Turku, Finland) and counted for ^125I in a Wallac Beta-Plate Reader. Alternatively, incubations were carried out in GF/C filter plates (pre-coated with 1% polyethyleneimine and air-dried before use), followed by vacuum filtration and three washes of 300 μL of ice-cold binding buffer. 50 μL of UltimaGold (Packard) scintillant were added and counted for ^125I, in a Wallac MicroBeta Trilux. Non-specific binding was defined by 300 nM human NPY for all receptors except the Y4 subtypes; 100 nM human PP was used for the human Y4 and 100 nM rat PP for the rat Y4.

[2] = target: T2, human Y1 receptor (Homo sapiens, UniProt P25929); assay: Radioligand binding to membranes, cloned human Y1 receptor; conditions: hNPY-1 (one cell for Y1, Y2, Y4), read-out: Ki, nM hNPY-1,2,4
T2 construct: expressed in transfected cells; host or cells: human embryonic kidney 293 cells, e.g. 293-hY1-5 (ATCC CRL-12121)
T2 sequence (P25929 1-384): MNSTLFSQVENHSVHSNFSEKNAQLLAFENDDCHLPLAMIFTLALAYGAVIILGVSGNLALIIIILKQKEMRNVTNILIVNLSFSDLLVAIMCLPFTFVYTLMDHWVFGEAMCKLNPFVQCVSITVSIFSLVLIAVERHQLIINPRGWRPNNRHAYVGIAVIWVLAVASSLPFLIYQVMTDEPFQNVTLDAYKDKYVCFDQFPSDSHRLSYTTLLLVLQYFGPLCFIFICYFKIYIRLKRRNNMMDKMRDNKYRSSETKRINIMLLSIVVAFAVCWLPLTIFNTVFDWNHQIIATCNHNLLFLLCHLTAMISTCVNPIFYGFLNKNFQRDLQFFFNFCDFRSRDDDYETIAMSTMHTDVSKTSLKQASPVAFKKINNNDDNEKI
Method: as §1, §2, §3, §4

[3] = target: T3, human Y2 receptor (Homo sapiens, UniProt P49146); assay: Radioligand binding to membranes, cloned human Y2 receptor
T3 sequence (P49146 1-381): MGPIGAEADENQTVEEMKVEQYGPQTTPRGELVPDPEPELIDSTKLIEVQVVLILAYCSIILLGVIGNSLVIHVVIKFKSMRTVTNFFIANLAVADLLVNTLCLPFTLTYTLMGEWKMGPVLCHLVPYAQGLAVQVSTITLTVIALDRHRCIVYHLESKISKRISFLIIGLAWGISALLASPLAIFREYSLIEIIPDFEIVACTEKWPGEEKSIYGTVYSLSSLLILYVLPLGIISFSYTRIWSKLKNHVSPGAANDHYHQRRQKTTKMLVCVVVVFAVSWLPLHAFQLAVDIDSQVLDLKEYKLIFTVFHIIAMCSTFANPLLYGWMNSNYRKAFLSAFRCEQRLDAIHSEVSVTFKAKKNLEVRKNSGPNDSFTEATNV
Method: as §1, §2, §3, §4

[4] = target: T4, human Y4 receptor (Homo sapiens, UniProt P50391); assay: Radioligand binding to membranes, cloned human Y4 receptor; conditions: hNPY-4 (one cell for Y1, Y2, Y4), read-out: Ki, nM hNPY-1,2,4
T4 construct: expressed in transfected cells; host or cells: mouse fibroblast LM(tk-) cells, e.g. L-hY4-3 (ATCC CRL-11779)
T4 sequence (P50391 whole entry): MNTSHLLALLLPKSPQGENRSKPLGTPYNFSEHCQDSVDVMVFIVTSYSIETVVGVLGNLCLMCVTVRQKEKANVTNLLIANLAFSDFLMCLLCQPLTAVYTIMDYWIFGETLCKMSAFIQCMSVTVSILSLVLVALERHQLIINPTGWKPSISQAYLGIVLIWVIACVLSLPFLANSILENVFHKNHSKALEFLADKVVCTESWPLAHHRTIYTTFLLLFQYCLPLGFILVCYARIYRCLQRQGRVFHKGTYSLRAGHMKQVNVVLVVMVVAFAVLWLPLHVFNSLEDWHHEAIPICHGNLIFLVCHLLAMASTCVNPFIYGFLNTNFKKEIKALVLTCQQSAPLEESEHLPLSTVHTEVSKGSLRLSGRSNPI
Method: as §1, §2, §3, §4

| melting point [°C] | Structure (SMILES) | also measured |
| --- | --- | --- |
| 49 to 51 | CCS(=O)(=O)NCCCCCNc1nc(-c2ccccn2)cs1 (as salt: chloride) [Example 67, 2-(5-(Ethylsulfonylamino)pentyl)amino-4-(2-pyridyl)thiazole hydrogen chloride] |  |
| 108 to 109 | Cc1noc(C)c1S(=O)(=O)NCCCCCNc1nc(-c2ccncc2)cs1 (as salt: chloride) [Example 74, 2-(5-(3,5-Dimethylisoxazol-4-yl)sulfonylamino)pentylamino-4-(4-pyridyl)thiazole hydrogen chloride] |  |
| 119 to 120 | COc1ccc(C)cc1S(=O)(=O)NCCCCCNc1nc(-c2cccnc2)cs1 (as salt: chloride) [Example 72, 2-(5-(2-Methoxy-5-methyl)phenylsulfonylamino)pentylamino-4-(3-pyridyl)thiazole hydrogen chloride] |  |
| 60 to 63 | O=S(=O)(NCCCCCNc1nc(-c2ccccn2)cs1)c1ccccc1F (as salt: chloride) [Example 61, 2-(5-(2-Fluorophenyl)sulfonylamino)pentylamino-4-(2-pyridyl)-thiazole hydrogen chloride] |  |
| 54 to 57 | COc1ccc(S(=O)(=O)NCCCCCNc2nc(-c3ccccn3)cs2)cc1 (as salt: chloride) [Example 62, 2-(5-(4-Methoxyphenyl)sulfonylamino)pentylamino-4-(2-pyridyl)thiazole hydrogen chloride] |  |
| 75 to 77 | O=S(=O)(NCCCCCNc1nc(-c2ccccn2)cs1)c1cccs1 (as salt: chloride) [Example 60, 4-(2-Pyridyl)-2-(5-(2-thienyl)sulfonylaminopentyl)-amino-thiazole hydrogen chloride] |  |
| 97 to 98 | O=S(=O)(NCCCCCNc1nc(-c2ccncc2)cs1)c1ccccc1F (as salt: chloride) [Example 73, 2-(5-(2-Fluoro)phenylsulfonylamino)pentylamino-4-(4-pyridyl)thiazole hydrogen chloride] |  |
| 65 to 68 | O=S(=O)(NCCCCCNc1nc(-c2ccccn2)cs1)c1ccc(F)c(F)c1 (as salt: chloride) [Example 64, 2-(5-(3,4-Difluorophenyl)sulfonylamino)pentylamino-4-(2-pyridyl)thiazole hydrogen chloride] |  |
| 155 to 156 | COc1ccc(C)cc1S(=O)(=O)NCCCCCNc1nc(-c2ccccn2)cs1 (as salt: chloride) [Example 65, 2-(5-(2-Methoxy-5-methylphenyl)sulfonylamino)pentylamino-4-(2-pyridyl)thiazole hydrogen chloride] |  |
| 114 to 115 | Cc1noc(C)c1S(=O)(=O)NCCCCCNc1nc(-c2cccnc2)cs1 (as salt: chloride) [Example 71, 2-(5-(3,5-Dimethylisoxazol-4-yl)sulfonylamino)pentylamino-4-(3-pyridyl)thiazole hydrogen chloride] |  |
| 141 to 142 | O=S(=O)(N[C@H]1CC[C@H](CNc2nc(-c3cccnc3)cs2)CC1)c1ccccc1F (as salt: chloride) [Example 86, trans-2-(4-(2-Fluorophenyl)sulfonylamino)cyclohexylmethyl-amino-4-(3-pyridyl)thiazole dihydrogen chloride] |  |
| 98 to 101 | Cc1noc(C)c1S(=O)(=O)N[C@H]1CC[C@H](CNc2nc(-c3ccccn3)cs2)CC1 (as salt: chloride) [Example 85, trans-2-(4-(3,5-Dimethyl-4-isoxazolyl)sulfonylamino)-cyclohexylmethylamino-4-(2-pyridyl)thiazole dihydrogen chloride] |  |
| 62 to 64 | O=S(=O)(Cc1ccccc1)NCCCCCNc1nc(-c2ccccn2)cs1 (as salt: chloride) [Example 66, 2-(5-(Benzylsulfonylamino)pentylamino-4-(2-pyridyl)thiazole hydrogen chloride] |  |
| 111 to 113 | COc1ccc(C)cc1S(=O)(=O)N[C@H]1CC[C@H](CNc2nc(-c3ccccn3)cs2)CC1 (as salt: chloride) [Example 83, trans-2-(4-(2-Methoxy-5-methylphenyl)sulfonylamino)-cyclohexylmethylamino-4-(2-pyridyl)thiazole dihydrogen chloride] |  |
|  | CCS(=O)(=O)NCCCCCNc1nc2c(s1)CCSc1ccccc1-2 [Example 109, N1-[5-(4,5-Dihydrobenzo[2,3]thiepino[4,5-d][1,3]thiazol-2-ylamino)pentyl]-1-ethanesulfonamide] | Ki ([1]; Table 6): 3.7 nM; Ki ([2]; Table 6): > 10000 nM; Ki [3]: > 10 µM; Ki ([4]; Table 6): > 10000 nM |
|  | COc1ccc(C)cc1S(=O)(=O)NCCCCCNc1nc(-c2cc(-c3ccccc3)on2)cs1 [Example 78] | Ki ([1]; Table 5): 891 nM; Ki ([2]; Table 5): > 10000 nM; Ki [3]: > 10 µM; Ki ([4]; Table 5): > 10000 nM |
| 116 to 117 | COc1ccc(C)cc1S(=O)(=O)NCCCCCNc1nc(-c2ccncc2)cs1 (as salt: chloride) [Example 75, 2-(5-(2-Methoxy-5-methyl)phenylsulfonylamino)pentylamino-4-(4-pyridyl)thiazole hydrogen chloride] |  |
|  | O=S(=O)(NCCCCCNc1nc(-c2cccnc2)cs1)c1ccccc1F [Example 70, 2-(5-(2-Fluorophenyl)sulfonylamino)pentylamino-4-(3-pyridyl)thiazole hydrogen chloride] | Ki ([1]; Table 5): 21 nM; Ki ([2]; Table 5): > 10000 nM; Ki [3]: > 10 µM; Ki ([4]; Table 5): > 10000 nM |
|  | O=S(=O)(NC[C@H]1CC[C@H](Nc2nc3c(s2)CCSc2ccccc2-3)CC1)c1cccc2nsnc12 [Example 118, N4-{[4-(4,5-Dihydrobenzo[2,3]thiepino[4,5-d][1,3]thiazol-2-ylamino)cyclohexyl]methyl}-2,1,3-benzothiadiazole-4-sulfonamide] | Ki ([1]; Table 6): 2.4 nM; Ki ([2]; Table 6): > 10000 nM; Ki [3]: > 10 µM; Ki ([4]; Table 6): > 10000 nM |
| 84 to 85 | O=S(=O)(NCCCCCNc1nc(-c2cccnc2)cs1)c1ccccc1F (as salt: chloride) [Example 70, 2-(5-(2-Fluorophenyl)sulfonylamino)pentylamino-4-(3-pyridyl)thiazole hydrogen chloride] |  |
| 63 to 65 | O=S(=O)(NCCCCCNc1nc(-c2ccccn2)cs1)C(F)(F)F (as salt: chloride) [Example 68, 2-(5-(Trifluoromethylsulfonylamino)pentyl)amino-4-(2-pyridyl)thiazole hydrogen chloride] |  |
| 68 to 70 | NS(=O)(=O)NCCCCCNc1nc(-c2ccccn2)cs1 (as salt: chloride) [Example 69, 2-(5-(Aminosulfonylamino)pentyl)amino-4-(2-pyridyl)thiazole hydrogen chloride] |  |
